Drawing on patent US20250136606A1, “MODULATORS OF TRPML, THEIR COMPOSITIONS AND METHODS OF USE” (Caraway Therapeutics, Inc., priority 2021, published 2025), this text covers EC50 for 17 molecules.

Where two headings read alike, the source gives them in different places. A value given as a limit tells only on which side of the number the result lay.

Common to all, as to assay type: cell-based
One test deals with T1, TRPML3 (Homo sapiens, UniProt Q8TDD5).
T1 construct: expressed in transfected cells
T1 sequence (Q8TDD5 1-553): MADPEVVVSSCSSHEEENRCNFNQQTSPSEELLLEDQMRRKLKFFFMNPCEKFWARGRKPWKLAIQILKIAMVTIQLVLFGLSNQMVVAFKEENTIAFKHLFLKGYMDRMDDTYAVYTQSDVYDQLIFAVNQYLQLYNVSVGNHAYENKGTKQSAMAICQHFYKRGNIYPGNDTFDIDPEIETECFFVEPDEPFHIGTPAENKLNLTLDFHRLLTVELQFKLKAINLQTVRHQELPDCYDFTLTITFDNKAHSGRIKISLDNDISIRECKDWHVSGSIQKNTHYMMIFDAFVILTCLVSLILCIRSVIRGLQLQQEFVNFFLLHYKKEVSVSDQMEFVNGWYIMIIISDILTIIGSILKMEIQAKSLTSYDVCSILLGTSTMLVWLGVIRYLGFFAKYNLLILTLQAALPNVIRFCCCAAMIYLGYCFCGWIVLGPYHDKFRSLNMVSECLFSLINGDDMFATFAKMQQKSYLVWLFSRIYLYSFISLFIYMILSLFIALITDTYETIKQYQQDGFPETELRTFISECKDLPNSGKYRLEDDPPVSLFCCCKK
Nature of the test: Fluorescent TRPML3 assay (performed as for TRPML1, substituting the TRPML3 subtype). In outline: (§1)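 Doxycycline-induced (0.5 ug/mL) HEK-293 Trex cells stably expressing surface-directed mutant channel were loaded with 1 micromolar Fluo4-AM, resuspended in Ringer's with 10 mM calcium and added to compound plates. Fluorescence (ex 480, em 540 nm) gave percent activity versus on-plate controls; EC50 by non-linear regression.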

A further test deals with TRPML1 (Homo sapiens, UniProt Q9GZU1). The experiment in a line: Fluorescent TRPML1 assay (Fluo4-AM calcium fluorescence in doxycycline-induced HEK-293 Trex cells). The procedure, abridged: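 First, expression of surface-targeted mutant human TRPML1 is induced in HEK-293 Trex cells with 0.5 ug/mL doxycycline the day before. Next, cells take up 1 micromolar Fluo4-AM in Ringer's with 0.1% Pluronic. Finally, they are added to compounds (6 nanomolar–20 micromolar final) in 10 mM calcium Ringer's and fluorescence is read.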

In a further test the target is T2, TRPML2 (Homo sapiens, UniProt Q8IZK6).
T2 construct: expressed in transfected cells
T2 sequence (Q8IZK6 1-566): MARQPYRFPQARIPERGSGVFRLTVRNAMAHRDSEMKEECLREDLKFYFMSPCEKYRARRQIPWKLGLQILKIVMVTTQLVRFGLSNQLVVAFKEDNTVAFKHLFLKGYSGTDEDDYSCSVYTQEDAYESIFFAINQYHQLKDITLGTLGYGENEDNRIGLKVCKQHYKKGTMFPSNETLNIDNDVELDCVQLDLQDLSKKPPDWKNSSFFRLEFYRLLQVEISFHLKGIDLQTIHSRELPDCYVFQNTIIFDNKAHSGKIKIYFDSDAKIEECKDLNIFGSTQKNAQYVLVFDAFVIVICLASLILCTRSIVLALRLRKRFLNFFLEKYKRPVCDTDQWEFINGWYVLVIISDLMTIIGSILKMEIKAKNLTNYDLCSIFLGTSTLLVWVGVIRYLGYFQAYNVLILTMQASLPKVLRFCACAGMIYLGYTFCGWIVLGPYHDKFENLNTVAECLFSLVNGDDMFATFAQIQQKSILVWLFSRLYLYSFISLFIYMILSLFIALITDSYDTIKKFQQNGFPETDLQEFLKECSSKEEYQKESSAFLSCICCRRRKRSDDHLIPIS
Nature of the test: Fluorescent TRPML2 assay (performed as for TRPML1, substituting the TRPML2 subtype). The procedure, abridged: as §1

TRPML1, sequence (Q9GZU1 whole entry L15A/L16A/L577A/L578A, form open): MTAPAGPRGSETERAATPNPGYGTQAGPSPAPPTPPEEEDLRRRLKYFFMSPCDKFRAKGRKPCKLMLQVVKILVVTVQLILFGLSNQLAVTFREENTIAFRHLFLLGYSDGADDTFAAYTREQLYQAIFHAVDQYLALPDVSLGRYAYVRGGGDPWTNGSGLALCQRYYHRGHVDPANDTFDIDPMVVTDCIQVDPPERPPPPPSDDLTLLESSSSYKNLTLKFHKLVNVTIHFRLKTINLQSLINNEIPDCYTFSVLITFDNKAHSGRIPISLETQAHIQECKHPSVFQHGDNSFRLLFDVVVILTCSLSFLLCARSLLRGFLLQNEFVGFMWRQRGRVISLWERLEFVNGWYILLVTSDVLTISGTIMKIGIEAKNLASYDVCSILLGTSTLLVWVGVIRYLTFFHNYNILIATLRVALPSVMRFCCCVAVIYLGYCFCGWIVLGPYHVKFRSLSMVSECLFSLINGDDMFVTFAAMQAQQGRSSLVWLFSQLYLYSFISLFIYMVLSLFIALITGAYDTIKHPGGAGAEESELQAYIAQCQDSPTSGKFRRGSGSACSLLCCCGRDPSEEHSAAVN

Usually EC50 stands for the concentration giving half of the maximal effect. Regarding `Cc1cn(-c2cc(C(F)(F)F)ccn2)c2ncnc(N3CCN(C(=O)OC(C)(C)C)[C@H](C)C3)c12` [Compound 679, tert-butyl (R)-2-methyl-4-(5-methyl-7-(4-(trifluoromethyl)pyridin-2-yl)-7H-pyrrolo[2,3-d]pyrimidin-4-yl)piperazine-1-carboxylatee], the EC50 at TRPML3, on TRPML1 and on TRPML2 was < 100 nM throughout.
Consider `C[C@H]1CN(C(=O)OC(C)(C)C(F)(F)F)CCN1c1ncnc2c1c(-c1ccccn1)cn2-c1cccc(Cl)c1` [Compound 121, 1,1,1-trifluoro-2-methylpropan-2-yl (S)-4-(7-(3-chlorophenyl)-5-(pyridin-2-yl)-7H-pyrrolo[2,3-d]pyrimidin-4-yl)-3-methylpiperazine-1-carboxylate], for which the EC50 at TRPML3 (fluorescent calcium assay) was < 100 nM; at TRPML1 (fluorescent calcium assay), < 100 nM; at TRPML2 (fluorescent calcium assay) it was 100 to 500 nM.
For the molecule `CC(C)(C)OC(=O)N1CCN(c2ncnc3c2c(C2CC2)cn3-c2cc(F)cc(F)c2)CC12CC2` [Compound 258, tert-Butyl 7-(5-cyclopropyl-7-(3,5-difluorophenyl)-7H-pyrrolo[2,3-d]pyrimidin-4-yl)-4,7-diazaspiro[2.5]octane-4-carboxylate], the EC50 was < 100 nM at TRPML3 (fluorescent calcium assay), < 100 nM on TRPML1 (fluorescent calcium assay) and 500 to 2000 nM on TRPML2 (fluorescent calcium assay).
For the molecule `CC(C)c1cn(-c2cc(F)ccn2)c2ncnc(N3C[C@@H](C)N(C(=O)OC(C)(C)C)C[C@@H]3C)c12` [Compound 698, tert-butyl (2R,5S)-4-(7-(4-fluoropyridin-2-yl)-5-isopropyl-7H-pyrrolo[2,3-d]pyrimidin-4-yl)-2,5-dimethylpiperazine-1-carboxylate], the EC50 on TRPML3 is < 100 nM; on TRPML1, < 100 nM; on TRPML2 it was 100 to 500 nM.
As to `C[C@@H]1CN(c2ncnc3c2c(C2CCC2)cn3-c2cccc(Cl)c2)[C@@H](C)CN1C(=O)OC(C)(C)C` [Compound 647, tert-butyl (2R,5S)-4-(7-(3-chlorophenyl)-5-cyclobutyl-7H-pyrrolo[2,3-d]pyrimidin-4-yl)-2,5-dimethylpiperazine-1-carboxylate], the EC50 on TRPML3 lay in the range of 500 to 2000 nM; at TRPML1, 100 to 500 nM; on TRPML2, 500 to 2000 nM.
With `C[C@@H]1CN(c2ncnc3c2c(C2CC2)cn3-c2cccc(F)c2)[C@@H](C)CN1C(=O)OC1(C)CC1` [Compound 658, 1-methylcyclopropyl (2R,5S)-4-(5-cyclopropyl-7-(3-fluorophenyl)-7H-pyrrolo[2,3-d]pyrimidin-4-yl)-2,5-dimethylpiperazine-1-carboxylate], the EC50 on TRPML3 is 100 to 500 nM; on TRPML1, < 100 nM; at TRPML2, 500 to 2000 nM.
Consider `C[C@H]1CN(C(=O)OC(C)(C)C)CCN1c1ncnc2c1c(-n1ccnc1)cn2-c1cccc(Cl)c1` [Compound 323, tert-butyl (S)-4-(7-(3-chlorophenyl)-5-(1H-imidazol-1-yl)-7H-pyrrolo[2,3-d]pyrimidin-4-yl)-3-methylpiperazine-1-carboxylate], for which the EC50 was < 100 nM at TRPML3 (fluorescent calcium assay), 100 to 500 nM on TRPML1 (fluorescent calcium assay) and > 2000 nM at TRPML2 (fluorescent calcium assay).
On to `C[C@@H]1CN(c2ncnc3c2c(C2CC2)cn3-c2cc(F)ccc2F)CCN1C(=O)OC(C)(C)C` [Compound 206, tert-butyl (R)-4-(5-cyclopropyl-7-(2,5-difluorophenyl)-7H-pyrrolo[2,3-d]pyrimidin-4-yl)-2-methylpiperazine-1-carboxylate], for which the EC50 was 100 to 500 nM at TRPML3 (fluorescent calcium assay), < 100 nM on TRPML1 (fluorescent calcium assay) and 500 to 2000 nM at TRPML2 (fluorescent calcium assay).
On to `Cc1cncc(-n2cc(C3CC3)c3c(N4CCN(C(=O)OC(C)(C)C)[C@@H](C)C4)ncnc32)c1` (single isomer, unassigned) [Compound 174], for which the figures for the EC50 on TRPML3 (fluorescent calcium assay), at TRPML1 (fluorescent calcium assay) and at TRPML2 (fluorescent calcium assay) were 100 to 500 nM, 100 to 500 nM and 500 to 2000 nM, respectively.
For `C[C@H]1CN(C(=O)OC(C)(C)C)CCN1c1ncnc2c1c(N1CCC(F)(F)C1)cn2-c1cccc(Cl)c1` [Compound 308, tert-butyl (S)-4-(7-(3-chlorophenyl)-5-(3,3-difluoropyrrolidin-1-yl)-7H-pyrrolo[2,3-d]pyrimidin-4-yl)-3-methylpiperazine-1-carboxylate], the EC50 on TRPML3 (fluorescent calcium assay), on TRPML1 (fluorescent calcium assay) and at TRPML2 (fluorescent calcium assay) was < 100 nM each time.
`C[C@H]1CN(C(=O)OC(C)(C)C)CCN1c1ncnc2c1c(C1CC1)cn2[C@H]1CCC[C@@H](C#N)C1` [Compound 527, tert-butyl (S)-4-(7-(cis-3-cyanocyclohexyl)-5-cyclopropyl-7H-pyrrolo[2,3-d]pyrimidin-4-yl)-3-methylpiperazine-1-carboxylate]: the EC50 on TRPML3 was 500 to 2000 nM; at TRPML1, 500 to 2000 nM; at TRPML2 it was > 2000 nM.
Turning to `C[C@H]1CN(C(=O)OC(C)(C)C)CCN1c1ncnc2c1c(-c1cccnc1)cn2-c1ccc(F)c(Cl)c1` [Compound 212, tert-butyl (S)-4-(7-(3-chloro-4-fluorophenyl)-5-(pyridin-3-yl)-7H-pyrrolo[2,3-d]pyrimidin-4-yl)-3-methylpiperazine-1-carboxylate], the EC50 on TRPML3 (fluorescent calcium assay) is < 100 nM; on TRPML1 (fluorescent calcium assay), < 100 nM; at TRPML2 (fluorescent calcium assay), 100 to 500 nM.
As for `Cc1cn(-c2ccc(F)cc2)c2ncnc(N3C[C@@H](C)N(C(=O)OC(C)(C)C)C[C@@H]3C)c12` [Compound 676, tert-butyl (2R,5S)-4-(7-(4-fluorophenyl)-5-methyl-7H-pyrrolo[2,3-d]pyrimidin-4-yl)-2,5-dimethylpiperazine-1-carboxylate], the EC50 on TRPML3 was < 100 nM; at TRPML1 it was < 100 nM; on TRPML2, 100 to 500 nM.
In the case of `C[C@H]1CN(C(=O)OC(C)(C)C(F)(F)F)CCN1c1ncnc2c1c(-c1ccccc1)cn2-c1cnn(C)c1` [Compound 183, 1,1,1-trifluoro-2-methylpropan-2-yl(S)-3-methyl-4-(7-(1-methyl-1H-pyrazol-4-yl)-5-phenyl-7H-pyrrolo[2,3-d]pyrimidin-4-yl)piperazine-1-carboxylate], the EC50 was 100 to 500 nM on TRPML3 (fluorescent calcium assay), 100 to 500 nM at TRPML1 (fluorescent calcium assay) and 500 to 2000 nM on TRPML2 (fluorescent calcium assay).
In the case of `CC(C)(C)OC(=O)N1CCN(c2ncnc3c2c(C2CC2)cn3-c2ccc(F)c(F)c2)CC1` [Compound 113, tert-butyl 4-(5-cyclopropyl-7-(3,4-difluorophenyl)-7H-pyrrolo[2,3-d]pyrimidin-4-yl)piperazine-1-carboxylate], the EC50 was 100 to 500 nM on TRPML3 (fluorescent calcium assay), < 100 nM at TRPML1 (fluorescent calcium assay) and 500 to 2000 nM at TRPML2 (fluorescent calcium assay).
For the molecule `CCOC(=O)N1CCN(c2ncnc3c2c(-c2ccccn2)cn3-c2ccc(F)c(Cl)c2)[C@@H](C)C1` [Compound 155, ethyl (S)-4-(7-(3-chloro-4-fluorophenyl)-5-(pyridin-2-yl)-7H-pyrrolo[2,3-d]pyrimidin-4-yl)-3-methylpiperazine-1-carboxylate], the EC50 on TRPML3 (fluorescent calcium assay) lay within 100 to 500 nM; at TRPML1 (fluorescent calcium assay) it was 100 to 500 nM; on TRPML2 (fluorescent calcium assay), 500 to 2000 nM.
In the case of `C[C@@H]1CN(c2ncnc3c2c(-c2ccccn2)cn3-c2cccc(Cl)c2)[C@@H](C)CN1C(=O)OC(C)(C)C` [Compound 117, tert-butyl (2R,5S)-4-(7-(3-chlorophenyl)-5-(pyridin-2-yl)-7H-pyrrolo[2,3-d]pyrimidin-4-yl)-2,5-dimethylpiperazine-1-carboxylate], the EC50 at TRPML3 (fluorescent calcium assay) was < 100 nM; on TRPML1 (fluorescent calcium assay) it was < 100 nM; at TRPML2 (fluorescent calcium assay), 100 to 500 nM.
